Laboratory results published in US6613762B2, “Gambogic acid, analogs and derivatives as activators of caspases and inducers of apoptosis” (Cytovia, Inc., priority 1999, dated 2003).

Columns and labels:
[1] = system: caspase cascade, T-47D cells; experiment: Known antineoplastic compounds as caspase cascade activators (Example 92), T-47D; type: cell-based, human; details: 10 μM final, 24 h; ratio of net RFU to control; ratio around 1 = not an efficient activator
Method: (§3) An aliquot of 45 μl of cells was added to a well of a 96-well microtiter plate containing 5 μl of a 10% DMSO in RPMI-1640 media solution containing 100 μM of test compounds (10 μM final). An aliquot of 45 μl of cells was added to a well of a 96-well microtiter plate containing 5 μl of a 10% DMSO in RPMI-1640 media solution without test compound as the control sample. The samples were mixed by agitation and then incubated at 37° C. for 24 h in a 5% CO2-95% humidity incubator. After incubation, the samples were removed from the incubator and 50 μl of a solution containing 20 μM of N-(Ac-DEVD)-N′-ethoxycarbonyl-R110 fluorogenic substrate (SEQ ID NO:1) (Cytovia, Inc.), 20% sucrose (Sigma), 20 mM DTT (Sigma), 200 mM NaCl (Sigma), 40 mM Na PIPES buffer pH 7.2 (Sigma), and 500 μg/ml lysolecithin (Calbiochem) was added. The samples were mixed by agitation and incubated for 3 h at room temperature. Using a fluorescent plate reader (Model 1420 Wallac Instruments), an initial reading (T=0) was made approximately 1-2 min. after addition of the substrate solution, employing excitation at 485 nm and emission at 530 nm, to determine the background fluorescence of the control sample. After the 3 h incubation, the samples were read for fluorescence as above (T=3 h).
(§4) The Relative Fluorescence Unit values (RFU) were used to calculate the sample readings as follows:
(§5) The activity in caspase cascade activation was determined by the ratio of the net RFU value for test compounds to that of control samples.

[2] = system: caspase cascade, PC-3 cells; experiment: Known antineoplastic compounds as caspase cascade activators (Example 92), PC-3; type: cell-based, human; details: 10 μM final, 24 h; ratio of net RFU to control; ratio around 1 = not an efficient activator
Method: as §3, §4, §5

[3] = system: caspase cascade; experiment: Caspase cascade activation assay (Example 90), MRC-5; type: cell-based, human; details: human
Method: (§1) Human breast cancer cell lines T-47D and ZR-75-1, human prostate cancer cell line PC-3, human leukemia cancer cell line HL-60 and human non-transformed fibroblast cell line MRC-5 cells were grown according to media component mixtures designated by The American Type Culture Collection+10% FCS (Life Technologies, Inc.), in a 5% CO2-95% humidity incubator at 37° C. T-47D, ZR-75-1 and PC-3 cells were maintained at a cell density between 30 and 80% confluency and for HL-60 at a cell density of 0.1 to 0.6×10^6 cells/m. Cells were harvested at 600× g and resuspended at 0.65×10^6 cells/ml into appropriate media +10% FCS. […] The samples were mixed by agitation and incubated at room temperature.
(§2) The EC50 (nM) was determined by a sigmoidal dose-response calculation (Prism 2.0, GraphPad Software Inc.).

[4] = system: caspase cascade, human prostate cancer cell line PC-3; experiment: Caspase cascade activation assay (Example 90), PC-3; type: cell-based; details: Homo sapiens; 24 h incubation; sigmoidal dose-response; read-out: PC-3 EC50 (caspase activation potency)
Method: as §1, §2

[5] = system: caspase cascade, human breast cancer cell line ZR-75-1; experiment: Caspase cascade activation assay (Example 90), ZR-75-1; type: cell-based; details: Homo sapiens, ZR-75-1; 24 h incubation; sigmoidal dose-response; read-out: ZR-75-1 EC50 (caspase activation potency)
Method: as §1, §2

[6] = system: caspase cascade, human breast cancer cell line T-47D; experiment: Caspase cascade activation assay (Example 90), T-47D; type: cell-based; details: Homo sapiens, T47D; 24 h incubation; sigmoidal dose-response; read-out: T-47D EC50 (caspase activation potency)
Method: as §1, §2

| EC50 at 24 h [3] | EC50 [4] | EC50 [5] | EC50 [6] | Compound | Caspase cascade activation ratio, T-47D [1] | Caspase cascade activation ratio, PC-3 [2] |
| --- | --- | --- | --- | --- | --- | --- |
|  |  |  |  | CN(Cc1cnc2nc(N)nc(N)c2n1)c1ccc(C(=O)N[C@@H](CCC(=O)O)C(=O)O)cc1 [Methotrexate] | 0.8 | 0.7 |
|  |  |  |  | CC[C@@]1(O)C(=O)OCc2c1cc1n(c2=O)Cc2cc3ccccc3nc2-1 [Camptothecin] | 0.7 | 0.6 |
|  |  |  |  | CC[C@]1(O)C[C@@H]2CN(CCc3c([nH]c4ccccc34)[C@@](C(=O)OC)(c3cc4c(cc3OC)N(C)[C@H]3[C@@](O)(C(=O)OC)[C@H](OC(C)=O)[C@]5(CC)C=CCN6CC[C@]43[C@@H]65)C2)C1 [Vinblastine] | 0.9 | 0.8 |
|  |  |  |  | O=c1[nH]cc(F)c(=O)[nH]1 [5-fluorouracil] | 0.8 | 0.7 |
|  |  |  |  | CC(=O)O[C@H]1C(=O)[C@@]2(C)[C@H]([C@H](OC(=O)c3ccccc3)[C@]3(O)C[C@H](OC(=O)[C@H](O)[C@@H](NC(=O)c4ccccc4)c4ccccc4)C(C)=C1C3(C)C)[C@]1(OC(C)=O)CO[C@@H]1C[C@@H]2O [Taxol] | 0.9 | 0.7 |
|  |  |  |  | COc1cccc2c1C(=O)c1c(O)c3c(c(O)c1C2=O)C[C@@](O)(C(=O)CO)C[C@@H]3O[C@H]1C[C@H](N)[C@H](O)[C@H](C)O1 [Doxorubicin] | 1.3 | 1.1 |
| 1.9 µM | 5.9 µM | 2.05 µM | 0.99 µM | CC(C)=CCCC1(C)C=Cc2c(O)c3c(c(CC=C(C)C)c2O1)OC12C(=CC4CC1C(C)(C)OC2(C/C=C(/C)C(=O)N1CCN(C)CC1)C4=O)C3=O (stereo not drawn) [Example 9, Gambogyl (4-Methylpiperazine)] |  |  |
|  |  |  |  | COc1cc([C@@H]2c3cc4c(cc3[C@@H](O[C@@H]3O[C@@H]5CO[C@@H](C)O[C@H]5[C@H](O)[C@H]3O)[C@H]3COC(=O)[C@H]23)OCO4)cc(OC)c1O [Etoposide] | 1.0 | 0.8 |
